Assay results taken from patent US20050090522A1 (priority 2001, published 2005).
Like-named read-outs stand apart in the source and are kept apart here.

System: HIV-1
Assay: HIV-1 single-round infectious luciferase reporter virus (pseudotype) assay in HeLa CD4 CCR5 cells
Format: cell-based
Procedure, shortened: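 HeLa CD4 CCR5 cells (5×10^4/well, DMEM + 10% FBS) were treated with compound (final <10 μM) and infected with single-round luciferase reporter virus made in 293 cells, at MOI ~0.01. Luciferase was read 72 h post infection. EC50 came from 10-concentration percent-inhibition curves fitted to a four-parameter logistic model.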

[1] = Human immunodeficiency virus 1, HeLa-CD4/CCR5, read-out: EC50 Group from TABLE 1, HeLa CD4 CCR5 cells, single-round infectious luciferase reporter virus
[2] = Human immunodeficiency virus 1, HeLa-CD4/CCR5, read-out: EC50 Group from Table 1, Table 2-1, HeLa CD4 CCR5 cells, single-round luciferase reporter virus
[3] = Human immunodeficiency virus 1, HeLa-CD4/CCR5, read-out: EC50 Group from Table 1, Table 4, HeLa CD4 CCR5 cells, single-round luciferase reporter virus

Compound: COc1cnc(-c2cccc(C)n2)c2[nH]cc(C(=O)C(=O)N3CCN(C(=O)c4ccccc4)CC3)c12 [Example 76, 1-benzoyl-4-[(4-methoxy-7-(2-methyl-pyridin-6-yl)-6-azaindol-3-yl)-oxoacetyl]piperazine]
- EC50 [1]: < 1000 nM

Compound: CNc1ncc(-c2ncc(OC)c3c(C(=O)C(=O)N4CCN(C(=O)c5ccccc5)CC4)c[nH]c23)nc1OC [Example 100, 1-benzoyl-4-[(4-methoxy-7-(2-methylamino-3-methoxy-pyrazin-5-yl)-6-azaindol-3-yl)-oxoacetyl]piperazine]
- EC50 [1]: < 1000 nM

Compound: COc1cnc(-c2cccc(N)n2)c2[nH]cc(C(=O)C(=O)N3CCN(C(=O)c4ccccc4)CC3)c12 [Example 75, 1-benzoyl-4-[(4-methoxy-7-(2-aminopyridin-6-yl)-6-azaindol-3-yl)-oxoacetyl]piperazine]
- EC50 [1]: < 1000 nM

Compound: COc1cnc(-c2nc(-c3ccoc3)n[nH]2)c2[nH]cc(C(=O)C(=O)N3CCN(C(=O)c4ccccc4)[C@H](C)C3)c12 [Example 340]
- EC50 [2]: < 1000 nM

Compound: COc1cnc(-n2ccc(CCCC#N)n2)c2[nH]cc(C(=O)C(=O)N3CCN(C(=O)c4ccccc4)CC3)c12 [Example 279, 1-benzoyl-4-[(4-methoxy-7-(3-(3-cyano-propan-1-yl)-pyrazol-1-yl)-6-azaindol-3-yl)-oxoacetyl]piperazine]
- EC50 [1]: < 1000 nM

Compound: C[C@@H]1CN(C(=O)c2ccccc2)CCN1C(=O)C(=O)c1c[nH]c2c(-c3ncc[nH]3)cc(Cl)nc12 [Example 60, 1-benzoyl-3-(R)-methyl-4-[(5-chloro-7-(imidazol-2-yl)-4-azaindol-3-yl)-oxoacetyl]piperazine]
- EC50 [3]: < 1000 nM

Compound: O=C(C(=O)N1CCN(C(=O)c2ccccc2)CC1)c1c[nH]c2c(-c3cc4ccccc4o3)nccc12 [Example 8, 1-benzoyl-4-[(7-(benzofuran-2-yl)-6-azaindol-3-yl)-oxoacetyl]piperazine]
- EC50 [1]: < 1000 nM

Compound: O=C(C(=O)N1CCN(C(=O)c2ccccc2)CC1)c1c[nH]c2c(-c3cccnn3)ncc(F)c12 [Example 154]
- EC50 [1]: < 1000 nM

Compound: O=C(C(=O)N1CCN(C(=O)c2ccccc2)CC1)c1c[nH]c2c(-c3ccco3)nccc12 [Example 7, 1-benzoyl-4-[(7-(furan-2-yl)-6-azaindol-3-yl)-oxoacetyl] piperazine]
- EC50 [1]: < 1000 nM

Compound: COc1cnc(-c2cnccn2)c2[nH]cc(C(=O)C(=O)N3CCN(C(=O)c4ccccc4)CC3)c12 [Example 32, 1-benzoyl-4-[(4-methoxy-7-(pyrazin-2-yl)-6-azaindol-3-yl)-oxoacetyl]piperazine]
- EC50 [1]: < 1000 nM

Compound: O=C(C(=O)N1CCN(C(=O)c2ccccc2)CC1)c1c[nH]c2c(-c3nccs3)ccnc12 [Example 131]
- EC50 [3]: < 1000 nM

Compound: COc1cnc(-n2ccc(COC(=O)CC(C)(C)C(=O)O)n2)c2[nH]cc(C(=O)C(=O)N3CCN(C(=O)c4ccccc4)[C@H](C)C3)c12 (stereo in doubt) [Example 295, 2,2-Dimethyl-succinic acid 4-(1-{3-[2-(4-benzoyl-3-methyl-piperazin-1-yl)-2-oxo-acetyl]-4-methoxy-1H-pyrrolo[2,3-c]pyridin-7-yl}-1H-pyrazol-3-ylmethyl) ester]
- EC50 [1]: < 1000 nM

Compound: COc1cnc(-n2ccc(-c3cccc(C(=O)O)c3)n2)c2[nH]cc(C(=O)C(=O)N3CCN(C(=O)c4ccccc4)CC3)c12 [Example 294, 1-benzoyl-4-[(4-methoxy-7-(3-(3-hydroxylcarbonylphenyl)-pyrazol-1-yl)-6-azaindol-3-yl)-oxoacetyl]piperazine]
- EC50 [1]: < 1000 nM

Compound: COc1cnc(-c2ccc3[nH]ccc3c2)c2[nH]cc(C(=O)C(=O)N3CCN(C(=O)c4ccccn4)CC3)c12 [Example 172, 1-picolinoyl-4-[(4-methoxy-7-(indol-5-yl)-6-azaindol-3-yl)-oxoacetyl]piperazine]
- EC50 [1]: < 1000 nM

Compound: COc1ccc(-c2ncc(OC)c3c(C(=O)C(=O)N4CCN(C(=O)c5ccccc5)CC4)c[nH]c23)cn1 [Example 69, 1-benzoyl-4-[(4-methoxy-7-(6-methoxy-pyridin-3-yl)-6-azaindol-3-yl)-oxoacetyl]piperazine]
- EC50 [1]: < 1000 nM

Compound: COc1cnc(-c2ccccn2)c2[nH]cc(C(=O)C(=O)N3CCN(C(=O)c4ccccc4)CC3)c12 [Example 36, 1-benzoyl-4-[(4-methoxy-7-(pyridin-2-yl)-6-azaindol-3-yl)-oxoacetyl]piperazine]
- EC50 [1]: < 1000 nM

Compound: CCC(C)c1ncc(-c2ncc(OC)c3c(C(=O)C(=O)N4CCN(C(=O)c5ccccc5)CC4)c[nH]c23)s1 (centres unmarked) [Example 91, 1-benzoyl-4-[(4-methoxy-7-(2-(2-butyl)-thiazol-5-yl)-6-azaindol-3-yl)-oxoacetyl]piperazine]
- EC50 [1]: < 1000 nM

Compound: COc1ncc(-c2ncc(OC)c3c(C(=O)C(=O)N4CCN(C(=O)c5ccccc5)CC4)c[nH]c23)cn1 [Example 117, 1-benzoyl-4-[(4-methoxy-7-(2-methoxy-pyrmdin-5-yl)-6-azaindol-3-yl)-oxoacetyl]piperazine]
- EC50 [1]: < 1000 nM

Compound: CCNc1cnc(-c2ncc(OC)c3c(C(=O)C(=O)N4CCN(C(=O)c5ccccc5)CC4)c[nH]c23)cn1 [Example 79, 1-benzoyl-4-[(4-methoxy-7-(2-ethylamino-pyrazin-5-yl)-6-azaindol-3-yl)-oxoacetyl]piperazine]
- EC50 [1]: < 1000 nM

Compound: COc1cnc(C2=NC(C)(C)CO2)c2[nH]cc(C(=O)C(=O)N3CCN(C(=O)c4ccccc4)CC3)c12 [Example 156]
- EC50 [1]: < 1000 nM

Compound: Cc1cc(-c2cc(Cl)nc3c(C(=O)C(=O)N4CCN(C(=O)c5ccccc5)C[C@H]4C)c[nH]c23)[nH]n1 [Example 64, 1-benzoyl-3-(R)-methyl-4-[(5-chloro-7-(3-methyl-pyrazol-5-yl)-4-azaindol-3-yl)-oxoacetyl]piperazine]
- EC50 [3]: < 1000 nM

Compound: CCOc1ccn(-c2ncc(OC)c3c(C(=O)C(=O)N4CCN(C(=O)c5ccccc5)[C@H](C)C4)c[nH]c23)n1 [Example 233, (R)-1-benzoyl-2-methyl-4-[(4-methoxy-7-(3-ethoxy-pyrazol-1-yl)-6-azaindol-3-yl)-oxoacetyl]piperazine]
- EC50 [2]: < 1000 nM

Compound: CNc1nc(-c2ncc(F)c3c(C(=O)C(=O)N4CCN(C(=O)c5ccccc5)CC4)c[nH]c23)no1 [Example 298]
- EC50 [1]: < 1000 nM

Compound: O=C(C(=O)N1CCN(C(=O)c2ccccc2)CC1)c1c[nH]c2c(-n3cccn3)ncc(F)c12 [Example 219]
- EC50 [1]: < 1000 nM

Compound: CNCc1ccn(-c2ncc(OC)c3c(C(=O)C(=O)N4CCN(C(=O)c5ccccc5)CC4)c[nH]c23)n1 [Example 283, 1-benzoyl-4-[(4-methoxy-7-(3-methylaminomethyl-pyrazol-1-yl)-6-azaindol-3-yl)-oxoacetyl]piperazine]
- EC50 [1]: < 1000 nM

Compound: CCCCCc1ccn(-c2ncc(OC)c3c(C(=O)C(=O)N4CCN(C(=O)c5ccccc5)CC4)c[nH]c23)n1 [Example 250, 1-benzoyl-4-[(4-methoxy-7-(3-n-pentyl-pyrazol-1-yl)-6-azaindol-3-yl)-oxoacetyl]piperazine]
- EC50 [1]: < 1000 nM

Compound: C[C@@H]1CN(C(=O)c2ccccc2)CCN1C(=O)C(=O)c1c[nH]c2c(-c3cncnc3)nccc12 [Example 16, 1-benzoyl-3-(R)-methyl-4-[(7-(pyrimidin-5-yl)-6-azaindol-3-yl)-oxoacetyl]piperazine]
- EC50 [1]: < 1000 nM

Compound: C[C@@H]1CN(C(=O)c2ccccc2)CCN1C(=O)C(=O)c1c[nH]c2c(-c3ccsc3)ccnc12 [Example 129]
- EC50 [3]: < 1000 nM

Compound: COc1cnc(-n2ccc(-c3ccc(C(=O)O)cc3)n2)c2[nH]cc(C(=O)C(=O)N3CCN(C(=O)c4ccccc4)CC3)c12 [Example 292, 1-benzoyl-4-[(4-methoxy-7-(3-(4-hydroxylcarbonylphenyl)-pyrazol-1-yl)-6-azaindol-3-yl)-oxoacetyl]piperazine]
- EC50 [1]: < 1000 nM

Compound: COc1ccc(-c2ccnc3c(C(=O)C(=O)N4CCN(C(=O)c5ccccc5)C[C@@H]4C)c[nH]c23)cc1 [Example 66, 1-benzoyl-3-(S)-methyl-4-[(7-(4-methoxy)-4-azaindol-3-yl)-oxoacetyl]piperazine]
- EC50 [3]: < 1000 nM

Compound: CCc1n[nH]c(-c2ncc(OC)c3c(C(=O)C(=O)N4CCN(C(=O)c5ccccc5)[C@H](C)C4)c[nH]c23)n1 [Example 336]
- EC50 [2]: < 1000 nM

Compound: COc1cnc(-c2ncccn2)c2[nH]cc(C(=O)C(=O)N3CCN(C(=O)c4ccccc4)CC3)c12 [Example 49, 1-benzoyl-4-[(4-methoxy-7-(pdin-2-yl)-6-azaindol-3-yl)-oxoacetyl]piperazine]
- EC50 [1]: < 1000 nM

Compound: COc1cnc(-c2cnc(O)cn2)c2[nH]cc(C(=O)C(=O)N3CCN(C(=O)c4ccccn4)[C@H](C)C3)c12 [Example 272]
- EC50 [2]: < 1000 nM

Compound: COc1cnc(-c2nccn2C)c2[nH]cc(C(=O)C(=O)N3CCN(C(=O)c4ccccc4)CC3)c12 [Example 27, 1-benzoyl-4-[(4-methoxy-7-(1-methyl-imidazol-2-yl)-6-azaindol-3-yl)-oxoacetyl]piperazine]
- EC50 [1]: < 1000 nM

Compound: O=C(C(=O)N1CCN(C(=O)c2ccccc2)CC1)c1c[nH]c2c(-c3cncnc3)ncc(Cl)c12 [Example 144]
- EC50 [1]: < 1000 nM

Compound: COc1cnc(-c2cccs2)c2[nH]cc(C(=O)C(=O)N3CCN(C(=O)c4ccccc4)CC3)c12 [Example 82, 1-benzoyl-4-[(4-methoxy-7-(thiophen-2-yl)-6-azaindol-3-yl)-oxoacetyl]piperazine]
- EC50 [1]: < 1000 nM

Compound: CCN(CC)CCN(C)c1cnc(-c2ncc(OC)c3c(C(=O)C(=O)N4CCN(C(=O)c5ccccc5)CC4)c[nH]c23)cn1 [Example 175, 1-benzoyl-4-[(4-methoxy-7-(2-(N-diethylaminoethyl-N-methyl)aminopyrazin-S-yl)-6-azaindol-3-yl)-oxoacetyl]piperazine]
- EC50 [1]: < 1000 nM

Compound: O=C(C(=O)N1CCN(C(=O)c2ccccc2)CC1)c1c[nH]c2c(-c3nccs3)nccc12 [Example 21, 1-benzoyl-4-[(7-(thiazol-2-yl)-6-azaindol-3-yl)-oxoacetyl]piperazine]
- EC50 [1]: < 1000 nM
